Laboratory results published in PubChem BioAssay AID1963847 (Molecular Pharmacology Branch, DTP, NCI, 2024).

Test system: 415267-285-R-J2-PDC complex spheroid viability
Test: Anticancer human tumor 415267-285-R-J2-PDC patient-derived breast carcinoma cell line growth inhibition [POLQ]
Conditions: for IC50: curve of first compound; for viability, T/C: stronger effect = lower value
Outline: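 PDC + HUVEC + MSC complex spheroids; POLQ inhibitors ± partner drugs; top conc. at/near clinical Cmax, else 10 microM (SN-38 1 microM), half-log dilutions; 37 degrees C, 5% CO2.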

[1] = second compound 0.0316 µM, first compound 0.0316 µM
[2] = second compound 0.0316 µM, first compound 0.1 µM
[3] = second compound 0.0316 µM, first compound 0.316 µM
[4] = second compound 0.0316 µM, first compound 1 µM
[5] = second compound 0.0316 µM, first compound 3.16 µM
[6] = second compound 0.0316 µM, first compound 10 µM
[7] = second compound 0.1 µM, first compound 0.0316 µM
[8] = second compound 0.1 µM, first compound 0.1 µM
[9] = second compound 0.1 µM, first compound 0.316 µM
[10] = second compound 0.1 µM, first compound 1 µM
[11] = second compound 0.1 µM, first compound 3.16 µM
[12] = second compound 0.1 µM, first compound 10 µM
[13] = second compound 0.316 µM, first compound 0.0316 µM
[14] = second compound 0.316 µM, first compound 0.1 µM
[15] = second compound 0.316 µM, first compound 0.316 µM
[16] = second compound 0.316 µM, first compound 1 µM
[17] = second compound 0.316 µM, first compound 3.16 µM
[18] = second compound 0.316 µM, first compound 10 µM
[19] = second compound 1 µM, first compound 0.0316 µM
[20] = second compound 1 µM, first compound 0.1 µM
[21] = second compound 1 µM, first compound 0.316 µM
[22] = second compound 1 µM, first compound 1 µM
[23] = second compound 1 µM, first compound 3.16 µM
[24] = second compound 1 µM, first compound 10 µM
[25] = second compound 3.16 µM, first compound 0.0316 µM
[26] = second compound 3.16 µM, first compound 0.1 µM
[27] = second compound 3.16 µM, first compound 0.316 µM
[28] = second compound 3.16 µM, first compound 1 µM
[29] = second compound 3.16 µM, first compound 3.16 µM
[30] = second compound 3.16 µM, first compound 10 µM
[31] = second compound 10 µM, first compound 0.0316 µM
[32] = second compound 10 µM, first compound 0.1 µM
[33] = second compound 10 µM, first compound 0.316 µM
[34] = second compound 10 µM, first compound 1 µM
[35] = second compound 10 µM, first compound 3.16 µM
[36] = second compound 10 µM, first compound 10 µM
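Note: spheroids exposed to compounds for one week before readout.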
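Throughout, for viability, T/C: luminescence used as stand-in measure of viable cells; 100% = DMSO vehicle control viability.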

For `COc1cccc2c1C(=O)c1c(O)c3c(c(O)c1C2=O)CC(O)(C(=O)CO)CC3OC1CC(N)C(O)C(C)O1` (stereo unspecified) + COC1C(OC(N)=O)C(O)C(Oc2ccc3c(O)c(NC(=O)c4ccc(O)c(CC=C(C)C)c4)c(=O)oc3c2C)OC1(C)C, the IC50 (second compound 0.0316 µM) was 44.6 nM, the IC50 (second compound 0.1 µM) was 37.5 nM and the IC50 (second compound 0.316 µM) was 35.2 nM. For the same compound, the IC50 (second compound 1 µM) was less than 31.6 nM, the IC50 (second compound 3.16 µM) was 39 nM and the IC50 (second compound 10 µM) was 44 nM. For the same compound, the viability, T/C [1] was 66.1%, the viability, T/C [2] was 12.3% and the viability, T/C [3] was 5.33%. For the same compound, the viability, T/C [4] was 1.27%, the viability, T/C [5] was 0.99% and the viability, T/C [6] was 3%. It also gave a viability, T/C [7] of 55.7%, a viability, T/C [8] of 17.9% and a viability, T/C [9] of 5.82%. It also gave a viability, T/C [10] of 0.96%, a viability, T/C [11] of 1.01% and a viability, T/C [12] of 2.7%. It also gave a viability, T/C [13] of 54.2%, a viability, T/C [14] of 12% and a viability, T/C [15] of 4.95%. It also gave a viability, T/C [16] of 0.99%, a viability, T/C [17] of 0.89% and a viability, T/C [18] of 2.53%. It also gave a viability, T/C [19] of 48.8%, a viability, T/C [20] of 11.6% and a viability, T/C [21] of 5.43%. For the same compound, the viability, T/C [22] was 1.06%, the viability, T/C [23] was 1.03% and the viability, T/C [24] was 2.68%. It also gave a viability, T/C [25] of 58.4%, a viability, T/C [26] of 12.5% and a viability, T/C [27] of 4.68%. It also gave a viability, T/C [28] of 1.06%, a viability, T/C [29] of 1.25% and a viability, T/C [30] of 2.55%. The viability, T/C [31] was 63.9%, the viability, T/C [32] was 16% and the viability, T/C [33] was 5.78%. For the same compound, the viability, T/C [34] was 1.44%, the viability, T/C [35] was 1.38% and the viability, T/C [36] was 3.32%.
In the case of `CCc1cc2c(N3CCc4c(cc(Cn5ccnc5)cc4-c4cn(C)nc4C(F)(F)F)C3=O)ccnc2c(OC)n1` + Nc1ccc(C#CCN(C(=O)Cc2ncc(C(F)(F)F)cc2C(F)(F)F)c2ccc(F)cc2)nn1, the IC50 (second compound 0.0316 µM) is reported as greater than 10000 nM, the IC50 (second compound 0.1 µM) is reported as greater than 10000 nM and the IC50 (second compound 0.316 µM) is reported as greater than 10000 nM. It also gave an IC50 (second compound 1 µM) greater than 10000 nM, an IC50 (second compound 3.16 µM) greater than 10000 nM and an IC50 (second compound 10 µM) greater than 10000 nM. It also gave a viability, T/C [1] of 95.8%, a viability, T/C [2] of 92.1% and a viability, T/C [3] of 78.2%. It also gave a viability, T/C [4] of 87.2%, a viability, T/C [5] of 89.7% and a viability, T/C [6] of 70.8%. For the same compound, the viability, T/C [7] was 94.3%, the viability, T/C [8] was 88.4% and the viability, T/C [9] was 79.6%. It also gave a viability, T/C [10] of 85.3%, a viability, T/C [11] of 92.9% and a viability, T/C [12] of 68.1%. It also gave a viability, T/C [13] of 94.2%, a viability, T/C [14] of 90.7% and a viability, T/C [15] of 75.7%. For the same compound, the viability, T/C [16] was 84.1%, the viability, T/C [17] was 86.4% and the viability, T/C [18] was 71.4%. The viability, T/C [19] was 85.9%, the viability, T/C [20] was 96% and the viability, T/C [21] was 81.8%. It also gave a viability, T/C [22] of 82.1%, a viability, T/C [23] of 87.8% and a viability, T/C [24] of 70.7%. The viability, T/C [25] was 90.4%, the viability, T/C [26] was 87.3% and the viability, T/C [27] was 78.8%. It also gave a viability, T/C [28] of 88.8%, a viability, T/C [29] of 78.2% and a viability, T/C [30] of 73.3%. It also gave a viability, T/C [31] of 94.9%, a viability, T/C [32] of 83.8% and a viability, T/C [33] of 90.4%. The viability, T/C [34] was 87.9%, the viability, T/C [35] was 77.5% and the viability, T/C [36] was 68.2%.
Work on `CC[C@@]1(O)C(=O)OCc2c1cc1n(c2=O)Cc2cc3c(CN(C)C)c(O)ccc3nc2-1` + Nc1ccc(C#CCN(C(=O)Cc2ncc(C(F)(F)F)cc2C(F)(F)F)c2ccc(F)cc2)nn1 yielded an IC50 (second compound 0.0316 µM) of 24.2 nM, an IC50 (second compound 0.1 µM) of 23.2 nM and an IC50 (second compound 0.316 µM) of 25.8 nM. For the same compound, the IC50 (second compound 1 µM) was 24.3 nM, the IC50 (second compound 3.16 µM) was 22.5 nM and the IC50 (second compound 10 µM) was 23.8 nM. The viability, T/C (second compound 0.0316 µM, first compound 0.000316 µM) was 102%, the viability, T/C (second compound 0.0316 µM, first compound 0.001 µM) was 101% and the viability, T/C (second compound 0.0316 µM, first compound 0.00316 µM) was 98.6%. The viability, T/C (second compound 0.0316 µM, first compound 0.01 µM) was 93.3%, the viability, T/C [1] was 37% and the viability, T/C [2] was 8.63%. For the same compound, the viability, T/C (second compound 0.1 µM, first compound 0.000316 µM) was 116%, the viability, T/C (second compound 0.1 µM, first compound 0.001 µM) was 102% and the viability, T/C (second compound 0.1 µM, first compound 0.00316 µM) was 96.8%. It also gave a viability, T/C (second compound 0.1 µM, first compound 0.01 µM) of 98.2%, a viability, T/C [7] of 32.5% and a viability, T/C [8] of 8.01%. For the same compound, the viability, T/C (second compound 0.316 µM, first compound 0.000316 µM) was 115%, the viability, T/C (second compound 0.316 µM, first compound 0.001 µM) was 98.2% and the viability, T/C (second compound 0.316 µM, first compound 0.00316 µM) was 94.2%. The viability, T/C (second compound 0.316 µM, first compound 0.01 µM) was 105%, the viability, T/C [13] was 38.5% and the viability, T/C [14] was 5.29%. The viability, T/C (second compound 1 µM, first compound 0.000316 µM) was 120%, the viability, T/C (second compound 1 µM, first compound 0.001 µM) was 96.2% and the viability, T/C (second compound 1 µM, first compound 0.00316 µM) was 98.8%. For the same compound, the viability, T/C (second compound 1 µM, first compound 0.01 µM) was 101%, the viability, T/C [19] was 33.4% and the viability, T/C [20] was 7.54%. For the same compound, the viability, T/C (second compound 3.16 µM, first compound 0.000316 µM) was 107%, the viability, T/C (second compound 3.16 µM, first compound 0.001 µM) was 103% and the viability, T/C (second compound 3.16 µM, first compound 0.00316 µM) was 97.6%. For the same compound, the viability, T/C (second compound 3.16 µM, first compound 0.01 µM) was 115%, the viability, T/C [25] was 26.7% and the viability, T/C [26] was 9.06%. It also gave a viability, T/C (second compound 10 µM, first compound 0.000316 µM) of 113%, a viability, T/C (second compound 10 µM, first compound 0.001 µM) of 106% and a viability, T/C (second compound 10 µM, first compound 0.00316 µM) of 98.9%. For the same compound, the viability, T/C (second compound 10 µM, first compound 0.01 µM) was 104%, the viability, T/C [31] was 32.2% and the viability, T/C [32] was 8.26%.
